Where two headings read alike, the source gives them in different places.
How the values were obtained:
Test in all cases: cells
[1] = system: endothelial tube formation in co-cultures of ECFCs and ADSCs treated with VEGF; format: cell-based, human; conditions: read-out: Anti-Angiogenesis
[2] = system: nuclear β-catenin in C2C12 cells; format: cell-based; conditions: read-out: Wnt Pathway
INS-1E cells = format: cell-based, rat; conditions: read-out: Insulin Secretion
NCI-H716 cells = format: cell-based, Human; conditions: read-out: GLP 1 Secretion
HeLa cells = format: cell-based; conditions: read-out: CellCycle G2/M
DLD-1 = format: cell-based; conditions: read-out: Basal_Viability ATP DLD-1
SW480 = format: cell-based; conditions: read-out: Basal_Viability ATP SW480
HCT116 = format: cell-based; conditions: read-out: Basal_Viability ATP HCT116
[3] = system: HCT116 cells treated with a GSK3β inhibitor; format: cell-based
Colo320 = format: cell-based; conditions: read-out: Basal_Viability ATP Colo 320
HT-29 = format: cell-based
RKO = format: cell-based; conditions: read-out: Basal_Viability ATP RKO
SNU-C1 = format: cell-based; conditions: read-out: Basal_Viability ATP SNU-C1
[4] = Mus musculus, C2C12, S2 Table, module primary assay, 20 / 20.1 codes per legend
[5] = Homo sapiens, HeLa, S2 Table, HeLa, 20 = no response at highest concentration
[6] = Homo sapiens, DLD-1, basal, DLD-1
[7] = Homo sapiens, SW480, basal, SW480
[8] = Homo sapiens, HCT-116, basal, HCT116
[9] = Homo sapiens, basal, HT-29, read-out: Basal_Viability ATP HT-29
[10] = Homo sapiens, SNU-C1, basal, SNU-C1
[11] = IC50 / EC50, endothelial tube area, ADSC/ECFC co-culture
[12] = IC50 / EC50, C2C12 beta-catenin translocation
[13] = GSK3b inhibitor pretreated, read-out: GSK3b inh pretreated_Viability ATP HCT116
[14] = basal, read-out: Basal_Viability ATP HT-29

| SMILES | EC50 [2, 4] | EC50 (INS-1E cells; Rattus norvegicus, INS-1E) | EC50 (NCI-H716 cells; Homo sapiens, NCI-H716) | EC50 (HeLa cells; [5]) | IC50 (DLD-1; [6]) | IC50 (SW480; [7]) | IC50 (HCT116; [8]) | IC50 (Colo320; Homo sapiens, basal, Colo 320) | IC50 (HT-29; [9]) | IC50 (RKO; Homo sapiens, basal, RKO) | IC50 (SNU-C1; [10]) | IC50 [1, 11] | EC50 [2, 12] | EC50 (INS-1E cells; IC50 / EC50, INS-1E) | EC50 (NCI-H716 cells; IC50 / EC50, NCI-H716) | EC50 (HeLa cells; IC50 / EC50, HeLa) | IC50 (DLD-1; basal) | IC50 (SW480; basal) | IC50 (HCT116; basal) | IC50 [3, 13] | also measured |
| --- | --- | --- | --- | --- | --- | --- | --- | --- | --- | --- | --- | --- | --- | --- | --- | --- | --- | --- | --- | --- | --- |
| CCc1oc2ccccc2c1C(=O)c1cc(Br)c(O)c(Br)c1 [Benzbromarone] | > 10 µM | > 10 µM | > 20 µM | > 10 µM | 0.268 µM | 1.74 µM | 1.06 µM | > 20 µM | 1.14 µM | 0.131 µM | 0.105 µM | – | – | – | – | – | – | – | – | – | IC50 ([1]; Homo sapiens): > 10 µM; IC50 ([3]; Homo sapiens, HCT-116, HCT116 pretreated with GSK3b inhibitor, read-out: GSK3b inh pretreated_Viability ATP HCT116): 0.0667 µM |
| CN(C)CCOC(c1ccccc1)c1ccc(Br)cc1 (stereo not drawn) [Bromazine] | – | – | – | – | – | – | – | – | – | – | – | – | – | – | – | – | – | – | – | – | IC50 ([1]; Homo sapiens, IC50 / EC50, endothelial tube area, ADSC/ECFC co-culture): > 10 µM; EC50 ([2]; Mus musculus, C2C12, IC50 / EC50, C2C12 beta-catenin translocation): > 10 µM; EC50 (INS-1E cells; Rattus norvegicus, IC50 / EC50, INS-1E): 2.77 µM; EC50 (NCI-H716 cells; Homo sapiens, IC50 / EC50, NCI-H716): > 10 µM; EC50 (HeLa cells; Homo sapiens, HeLa, IC50 / EC50, HeLa): > 10 µM; IC50 (DLD-1; Homo sapiens, DLD-1, basal): > 20 µM; IC50 (SW480; Homo sapiens, SW480, basal): > 20 µM; IC50 (HCT116; Homo sapiens, HCT-116, basal): > 20 µM; IC50 ([3]; Homo sapiens, HCT-116, GSK3b inhibitor pretreated, read-out: GSK3b inh pretreated_Viability ATP HCT116): > 20 µM; IC50 (Colo320; Homo sapiens, COLO 320): > 20 µM; IC50 (HT-29; Homo sapiens, HT-29, read-out: Basal_Viability ATP HT-29): 17 µM; IC50 (RKO; Homo sapiens, RKO): > 20 µM; IC50 (SNU-C1; Homo sapiens, SNU-C1, basal): 3.1 µM |
| CCCCOC(=O)c1ccc(N)cc1 [Butyl aminobenzoate] | > 10 µM | > 10 µM | > 10 µM | > 10 µM | 4.56 µM | 0.586 µM | > 20 µM | > 20 µM | > 20 µM | 0.137 µM | > 20 µM | – | – | – | – | – | – | – | – | – | IC50 ([1]; Homo sapiens, S2 Table, module primary assay, 20 = no response at highest concentration, 20.1 = inactive in single concentration testing): > 10 µM; IC50 ([3]; Homo sapiens, HCT-116, read-out: GSK3b inh pretreated_Viability ATP HCT116): 5.61 µM |
| O=[N+]([O-])c1ccc(Oc2ccc(N=C=S)cc2)cc1 [Cantrodifene] | – | – | – | – | – | – | – | – | – | – | – | 3.72 µM | > 10 µM | > 10 µM | > 10 µM | > 10 µM | 2.1 µM | 1.63 µM | 2.77 µM | 1.47 µM | IC50 (Colo320; basal): 1.46 µM; IC50 (HT-29; [14]): 1.07 µM; IC50 (RKO; basal): 2.34 µM; IC50 (SNU-C1; basal): 4.33 µM |
| O=C([O-])CN(CCN(CC(=O)[O-])CC(=O)O)CCN(CC(=O)[O-])CC(=O)O.[Gd+3] [Gadopentetic acid] | – | – | – | – | – | – | – | – | – | – | – | – | – | – | – | – | – | – | – | – | IC50 [1]: > 10 µM; EC50 [2]: > 10 µM; EC50 (INS-1E cells): > 10 µM; EC50 (NCI-H716 cells): > 10 µM; EC50 (HeLa cells): > 10 µM; IC50 (DLD-1): > 20 µM; IC50 (SW480): 3.14 µM; IC50 (HCT116): > 20 µM; IC50 ([3]; read-out: GSK3b inh pretreated_Viability ATP HCT116): 0.896 µM; IC50 (Colo320): > 20 µM; IC50 (HT-29; read-out: Basal_Viability ATP HT-29): > 20 µM; IC50 (RKO): 2.96 µM; IC50 (SNU-C1): > 20 µM |
| O=C(c1cc(O)c(O)c(O)c1)c1ccc(O)c(O)c1O [Hexahydro-2,3,4,3',4',5'-benzophenone] | – | – | – | – | – | – | – | – | – | – | – | > 10 µM | > 10 µM | > 10 µM | > 10 µM | > 10 µM | 11.9 µM | 9.95 µM | 16.3 µM | 0.0691 µM | IC50 (Colo320; basal): 9.38 µM; IC50 (HT-29; [14]): 9.45 µM; IC50 (RKO; basal): 0.192 µM; IC50 (SNU-C1; basal): 12.8 µM |

Source: article PMC4503722, “Novel Phenotypic Outcomes Identified for a Public Collection of Approved Drugs from a Publicly Accessible Panel of Assays” (PLoS ONE, 2015)
